According to ChEMBL document CHEMBL4145470, “Efficient synthesis and first regioselective C-6 direct arylation of imidazo[2,1-c][1,2,4]triazine scaffold and their evaluation in H2O2-induced oxidative stress” (Eur J Med Chem, 2018):
Calls of active or inactive are those of the source. The rule behind the calls is not given here.

Experiments:
SH-SY5Y [1] = test: Cytoprotective activity against H2O2-induced apoptosis in human SH-SY5Y cells assessed as decrease in Bax levels at 0.1 uM preincubated for 24 hrs followed by H2O2 addition measured after 1 hr by Western blot analysis; type: functional, cell-based
SH-SY5Y [2] = test: Cytoprotective activity against H2O2-induced oxidative stress in human SH-SY5Y cells assessed as cell viability at 0.1 uM preincubated for 24 hrs followed by H2O2 addition and measured after 1 hr by MTT assay (reference value: 37.88 +/- 8.52%); type: functional; conditions: read-out: Activity
SH-SY5Y [3] = test: Cytotoxicity against human SH-SY5Y cells at 1 to 10 uM after 24 hrs by MTT assay; type: cell-based
SH-SY5Y [4] = test: Cytoprotective activity against H2O2-induced apoptosis in human SH-SY5Y cells assessed as increase in Bcl-2/Bax ratio at 0.1 uM preincubated for 24 hrs followed by H2O2 addition measured after 1 hr by Western blot analysis; type: functional, cell-based
[5] = target: Eukaryotic translation initiation factor 2 subunit 1 (Homo sapiens) (UniProt P05198); test: Inhibition of H2O2-induced eIF2alpha phosphorylation in human SH-SY5Y cells at 0.1 uM; type: cell-based
SH-SY5Y [6] = test: Cytoprotective activity against H2O2-induced oxidative stress in human SH-SY5Y cells assessed as cell viability at 1 uM preincubated for 24 hrs followed by H2O2 addition and measured after 1 hr by MTT assay (reference value: 37.88 +/- 8.52%); type: functional; conditions: read-out: Activity
SH-SY5Y [7] = test: Cytoprotective activity against H2O2-induced oxidative stress in human SH-SY5Y cells assessed as increase in cell viability preincubated for 24 hrs followed by H2O2 addition and measured after 1 hr by MTT assay; type: functional, cell-based
SH-SY5Y [8] = test: Cytoprotective activity against H2O2-induced oxidative stress in human SH-SY5Y cells assessed as cell viability at 10 uM preincubated for 24 hrs followed by H2O2 addition and measured after 1 hr by MTT assay (reference value: 37.88 +/- 8.52%); type: functional; conditions: read-out: Activity
[9] = target: RAC-alpha serine/threonine-protein kinase (Homo sapiens) (UniProt P31749); test: Induction of Akt phosphorylation in H2O2-treated human SH-SY5Y cells at 0.1 uM by ELISA; type: cell-based
SH-SY5Y [10] = test: Cytoprotective activity against H2O2-induced apoptosis in human SH-SY5Y cells assessed as increase in Bcl-2 levels at 0.1 uM preincubated for 24 hrs followed by H2O2 addition measured after 1 hr by Western blot analysis; type: functional, cell-based
[11] = target: RAC-alpha serine/threonine-protein kinase (Homo sapiens) (UniProt P31749); test: Induction of Akt phosphorylation in H2O2-treated human SH-SY5Y cells assessed as increase in pBad levels at 0.1 uM by ELISA; type: cell-based
SH-SY5Y [12] = test: Cytoprotective activity against H2O2-induced apoptosis in human SH-SY5Y cells assessed as relative Bcl-2 levels at 1 uM preincubated for 24 hrs followed by H2O2 addition measured after 1 hr by Western blot analysis (reference value: 2.084 +/- 0.078); type: functional
SH-SY5Y [13] = test: Cytoprotective activity against H2O2-induced apoptosis in human SH-SY5Y cells assessed as increase in Bcl-2/Bax ratio at 1 uM preincubated for 24 hrs followed by H2O2 addition measured after 1 hr by Western blot analysis; type: functional, cell-based
[14] = target: Eukaryotic translation initiation factor 2 subunit 1 (Homo sapiens) (UniProt P05198); test: Inhibition of H2O2-induced eIF2alpha phosphorylation in human SH-SY5Y cells at 1 uM; type: cell-based
SH-SY5Y [15] = test: Cytoprotective activity against H2O2-induced apoptosis in human SH-SY5Y cells assessed as decrease in Bax levels at 1 uM preincubated for 24 hrs followed by H2O2 addition measured after 1 hr by Western blot analysis; type: functional, cell-based
[16] = target: T1, Mitogen-activated protein kinase; ERK1/ERK2 (Homo sapiens) (UniProt P27361+P28482); test: Inhibition of H2O2-induced p44/42 MAPK phosphorylation in human SH-SY5Y cells at 1 uM; type: cell-based
SH-SY5Y [17] = test: Cytoprotective activity against H2O2-induced apoptosis in human SH-SY5Y cells assessed as relative cleaved caspase-3 levels at 0.1 uM (reference value: 0.875 +/- 0.035); type: functional
SH-SY5Y [18] = test: Cytoprotective activity against H2O2-induced apoptosis in human SH-SY5Y cells assessed as relative cleaved PARP levels at 0.1 uM (reference value: 0.725 +/- 0.06); type: functional
[19] = target: T1, Mitogen-activated protein kinase; ERK1/ERK2 (Homo sapiens); test: Inhibition of H2O2-induced p44/42 MAPK phosphorylation in human SH-SY5Y cells at 0.1 uM; type: cell-based
[20] = Cytoprotective activity against H2O2-induced apoptosis in human SH-SY5Y cells assessed as relative cleaved caspase-7 levels at 1 uM (reference value: 1.025 +/- 0.120)
SH-SY5Y [21] = test: Cytoprotective activity against H2O2-induced apoptosis in human SH-SY5Y cells assessed as increase in Bcl-2/Bax ratio at 10 uM preincubated for 24 hrs followed by H2O2 addition measured after 1 hr by Western blot analysis; type: functional, cell-based
SH-SY5Y [22] = test: Cytoprotective activity against H2O2-induced apoptosis in human SH-SY5Y cells assessed as relative Bcl-2 levels at 10 uM preincubated for 24 hrs followed by H2O2 addition measured after 1 hr by Western blot analysis (reference value: 2.084 +/- 0.078); type: functional
[23] = target: T1, Mitogen-activated protein kinase; ERK1/ERK2 (Homo sapiens); test: Inhibition of H2O2-induced p44/42 MAPK phosphorylation in human SH-SY5Y cells at 10 uM; type: cell-based

Sequence of Eukaryotic translation initiation factor 2 subunit 1 (Homo sapiens) (P05198 whole entry): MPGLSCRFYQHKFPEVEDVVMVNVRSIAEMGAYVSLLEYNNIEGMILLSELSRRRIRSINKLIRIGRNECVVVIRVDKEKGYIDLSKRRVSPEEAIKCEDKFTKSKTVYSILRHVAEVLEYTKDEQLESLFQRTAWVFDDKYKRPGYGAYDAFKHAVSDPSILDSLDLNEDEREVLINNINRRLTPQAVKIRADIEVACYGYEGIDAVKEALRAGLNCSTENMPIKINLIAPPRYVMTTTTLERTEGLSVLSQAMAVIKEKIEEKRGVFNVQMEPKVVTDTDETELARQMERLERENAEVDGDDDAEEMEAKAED
T1 sequence (P27361 whole entry, looked up): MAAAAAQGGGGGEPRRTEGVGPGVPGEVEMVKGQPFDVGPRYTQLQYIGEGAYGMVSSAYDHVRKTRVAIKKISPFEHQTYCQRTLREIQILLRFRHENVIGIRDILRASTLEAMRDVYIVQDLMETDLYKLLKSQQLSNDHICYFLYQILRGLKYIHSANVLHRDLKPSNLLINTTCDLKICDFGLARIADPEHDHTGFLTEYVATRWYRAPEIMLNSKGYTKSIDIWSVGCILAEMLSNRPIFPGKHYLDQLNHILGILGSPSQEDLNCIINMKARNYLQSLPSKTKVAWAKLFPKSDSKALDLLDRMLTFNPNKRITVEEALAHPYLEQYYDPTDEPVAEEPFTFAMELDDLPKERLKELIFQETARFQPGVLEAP
T1 sequence (P28482 whole entry, looked up): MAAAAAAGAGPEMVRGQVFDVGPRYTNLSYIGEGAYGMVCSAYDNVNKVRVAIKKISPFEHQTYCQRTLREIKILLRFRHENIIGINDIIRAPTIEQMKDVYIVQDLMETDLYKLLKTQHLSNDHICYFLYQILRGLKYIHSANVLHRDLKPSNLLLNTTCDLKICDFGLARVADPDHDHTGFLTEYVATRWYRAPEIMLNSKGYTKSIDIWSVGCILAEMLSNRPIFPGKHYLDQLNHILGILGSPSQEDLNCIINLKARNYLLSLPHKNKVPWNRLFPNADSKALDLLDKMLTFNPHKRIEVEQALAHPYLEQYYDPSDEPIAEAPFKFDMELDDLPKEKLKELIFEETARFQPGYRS
Sequence of RAC-alpha serine/threonine-protein kinase (Homo sapiens) (P31749 whole entry): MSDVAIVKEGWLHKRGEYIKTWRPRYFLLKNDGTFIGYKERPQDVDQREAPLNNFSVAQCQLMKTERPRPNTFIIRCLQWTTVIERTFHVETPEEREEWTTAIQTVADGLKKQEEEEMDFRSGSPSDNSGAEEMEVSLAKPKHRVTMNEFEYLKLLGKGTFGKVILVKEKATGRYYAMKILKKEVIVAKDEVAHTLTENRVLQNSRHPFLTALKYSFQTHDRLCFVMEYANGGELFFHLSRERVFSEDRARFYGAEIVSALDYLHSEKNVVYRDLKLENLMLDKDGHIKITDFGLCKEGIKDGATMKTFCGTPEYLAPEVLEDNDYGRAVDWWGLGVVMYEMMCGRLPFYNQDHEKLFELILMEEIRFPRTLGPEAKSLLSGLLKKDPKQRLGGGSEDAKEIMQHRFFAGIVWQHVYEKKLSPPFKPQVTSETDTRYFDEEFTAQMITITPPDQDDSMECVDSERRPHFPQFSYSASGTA

inhibition [5]	Activity [9]	Activity [11]	Compound	Activity (SH-SY5Y [1])	viability at 0.1 µM (SH-SY5Y [2]) [%]	Activity (SH-SY5Y [3])	viability at 1 µM (SH-SY5Y [6]) [%]	Activity (SH-SY5Y [7])	viability at 10 µM (SH-SY5Y [8]) [%]	also measured
inactive	Active	Active	c1ccc(-c2cn3ccnnc3n2)cc1	inactive	77.3	Non-Toxic	72.8	Dose-dependent effect	62.6	–
inactive	inactive	inactive	COc1ccc(-c2nc3nnccn3c2-c2ccc([N+](=O)[O-])cc2)cc1	Active	81.2	Non-Toxic	56	Dose-dependent effect	74.9	–
–	Active	inactive	COc1ccc(-c2nc3nnccn3c2-c2cccs2)cc1	–	44.6	Non-Toxic	70.7	Dose-dependent effect	68.4	fold change (FC) (SH-SY5Y [12]): 2.955; Activity (SH-SY5Y [13]): Active; inhibition [14]: inactive; Activity (SH-SY5Y [15]): inactive
inactive	–	–	COc1ccc(-c2nc3nnccn3c2-c2cccc(C#N)c2)cc1	–	66.6	Non-Toxic	55.5	Dose-dependent effect	54.3	–
inactive	–	–	COc1ccc(-c2cn3ccnnc3n2)cc1	Active	73.9	Non-Toxic	71.3	Dose-dependent effect	60.9	fold change (FC) (SH-SY5Y [17]): 0.705; fold change (FC) (SH-SY5Y [18]): 0.62; inhibition [19]: Active
–	Active	Active	COc1ccc(-c2nc3nnccn3c2-c2ccc(C)c([N+](=O)[O-])c2)cc1	–	49.5	Non-Toxic	79.6	Dose-dependent effect	83.3	fold change (FC) (SH-SY5Y [12]): 2.398; inhibition [16]: Active; Activity (SH-SY5Y [13]): Active; inhibition [14]: inactive; Activity (SH-SY5Y [15]): Active; fold change (FC) [20]: 0.834

Further lines, the compound ahead of its results:

Compound	inhibition [5]	Activity [9]	Activity [11]	Activity (SH-SY5Y [1])	viability at 0.1 µM (SH-SY5Y [2]) [%]	Activity (SH-SY5Y [3])	viability at 1 µM (SH-SY5Y [6]) [%]	Activity (SH-SY5Y [7])	viability at 10 µM (SH-SY5Y [8]) [%]	also measured
COc1ccc(-c2nc3nnccn3c2-c2ccccc2)cc1	inactive	Active	Active	Active	72.9	Non-Toxic	50.6	Dose-dependent effect	79.7	Activity (SH-SY5Y [4]): Active; Activity (SH-SY5Y [10]): Active
COc1ccc(-c2nc3nnccn3c2-c2ccncc2)cc1	–	–	–	–	64.1	Non-Toxic	55.7	Dose-dependent effect	61.5	–
COc1ccc(-c2nc3nnccn3c2-c2ccc(OC(F)(F)F)cc2)cc1	inactive	Active	Active	Active	78.6	Non-Toxic	54.8	Dose-dependent effect	66.8	Activity (SH-SY5Y [4]): Active; Activity (SH-SY5Y [10]): Active
COc1ccc(-c2nc3nnccn3c2-c2cccc(F)c2)cc1	–	–	–	–	54.6	Non-Toxic	51.3	Dose-dependent effect	66.4	–
COc1ccc(-c2nc3nnccn3c2-c2ccccc2C)cc1	–	–	–	–	60.7	Non-Toxic	73.8	Dose-dependent effect	72.4	inhibition [16]: Active; inhibition [14]: inactive; Activity (SH-SY5Y [15]): Active
COc1ccccc1-c1cn2ccnnc2n1	inactive	Active	Active	Active	62.7	Non-Toxic	60.5	Dose-dependent effect	51.1	Activity (SH-SY5Y [10]): Active
O=[N+]([O-])c1cccc(-c2cn3ccnnc3n2)c1	–	–	–	–	61.5	Non-Toxic	58.9	Dose-dependent effect	65.7	–
N#Cc1ccc(-c2cn3ccnnc3n2)cc1	–	–	–	–	67.1	Non-Toxic	65.4	Dose-dependent effect	54.2	–
COc1ccc(-c2nc3nnccn3c2-c2ccc(OC)cc2)cc1	–	–	–	–	49.6	Non-Toxic	65.5	Dose-dependent effect	75.2	Activity (SH-SY5Y [21]): Active; fold change (FC) (SH-SY5Y [22]): 3.015; inhibition [14]: inactive; inhibition [23]: Active
